Measurements from patent publication US20160304547A1, “MACROLIDE COMPOUND” (PULIKE BIOLOGICAL ENGINEERING, INC, priority 2013, published 2016).

Key:
[1] = tested on: Streptococcus pneumoniae CMCC 31203; experiment: In vivo antibacterial test, survival of infected BALB/c mice; conditions: Tulathromycin control group, 10 mg per kg of body weight after infection; BALB/c mice infected i.p. with Streptococcus pneumoniae; until the seventh day
[2] = orally intoxicated mice; cited from earlier work
[3] = Acute toxicity test of compound Syzx-24, single gastric perfusion; conditions: Balb/c mice, 2000 mg/kg once by gastric perfusion, 6 h after administration

SMILES	Animal survival rate [1]	minimum lethal dose [2]	Death rate [3] [%]	Number of dead animals/total number of animals [3]
CCCNC[C@]1(O)[C@H](C)O[C@@H](O[C@H]2[C@H](C)[C@@H](O[C@@H]3O[C@H](C)C[C@H](N(C)C)[C@H]3O)[C@](C)(O)C[C@@H](C)CN[C@H](C)[C@@H](O)[C@](C)(O)[C@@H](CC)OC(=O)[C@@H]2C)C[C@@]1(C)OC [Tulathromycin, reference compound]	70% (7/10)	higher than 2000 mg/kg.d-1	75	
CC[C@H]1OC(=O)[C@H](C)[C@@H](O[C@H]2C[C@@](C)(OC)[C@](O)(CN(C)C)[C@H](C)O2)[C@H](C)[C@@H](O[C@@H]2O[C@H](C)C[C@H](N(C)C)[C@H]2O)[C@](C)(O)C[C@@H](C)NC[C@H](C)[C@@H](O)[C@]1(C)O [syzx-24]			0	0/4
